Laboratory results reported in ChEMBL document CHEMBL5726657, “Substituted pyrrolo[3,4-e]indolizines, imidazo[1,2-a]pyrrolo[3,4-e]pyridines, pyrrolo[3,4-e][1,2,4]triazolo[1,5-a]pyridines and pyrrolo[3,4-e][1,2,4]triazolo[4,3-a]pyridines as positive allosteric modulators of muscarinic acetylcholine receptor M1” (2019).

Target: T1, Muscarinic acetylcholine receptor M1 (Homo sapiens, UniProt P11229)
T1 sequence (P11229 whole entry): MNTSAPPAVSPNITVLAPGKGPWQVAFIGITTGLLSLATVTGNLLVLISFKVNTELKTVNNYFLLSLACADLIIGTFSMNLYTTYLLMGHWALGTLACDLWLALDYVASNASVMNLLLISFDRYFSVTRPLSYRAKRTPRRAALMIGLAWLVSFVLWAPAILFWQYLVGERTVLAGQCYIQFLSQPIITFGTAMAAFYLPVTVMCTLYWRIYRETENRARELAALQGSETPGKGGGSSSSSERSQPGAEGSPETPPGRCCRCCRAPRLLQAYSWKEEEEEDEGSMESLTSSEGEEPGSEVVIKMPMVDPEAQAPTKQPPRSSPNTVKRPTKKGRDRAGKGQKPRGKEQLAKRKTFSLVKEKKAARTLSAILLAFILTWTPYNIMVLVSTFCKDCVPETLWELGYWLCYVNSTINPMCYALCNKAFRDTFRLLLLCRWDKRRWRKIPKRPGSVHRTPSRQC
Experiment: Cell-Based Functional Assay of Muscarinic Acetylcholine Receptor: For high throughput measurement of agonist-evoked increases in intracellular calcium, CHO-K1 cells stably expressing muscarinic receptors were plated in growth medium lacking G418 and hygromycin at 15,000 cells/20 μL/well in Greiner 384-well black-walled, tissue culture (TC)-treated, clear-bottom plates (VWR). Cells were incubated overnight at 37° C. and 5% CO2. The next day, cells were washed using an ELX 405 (BioTek) with four washes (80 μL) of assay buffer then aspirated to 20 μL. Next, 20 μL of 16 μM Fluo-4/acetoxymethyl ester (Invitrogen, Carlsbad, Calif.) prepared as a 2.3 mM stock in DMSO and mixed in a 1:1 ratio with 10% (w/v) Pluronic F-127 and diluted in assay buffer was added to the wells and the cell plates were incubated for 50 min at 37° C. and 5% CO2. Dye was removed by washing with the ELX 405 (four 80 μL washes of assay buffer) then aspirated to 20 μL. Compound master plates were formatted in an 11 point CRC format (1:3 dilutions) in 100% DMSO with a starting concentration of 10 mM using the BRAVO liquid handler (Agilent). […]

Which EC50 does the source give for Cn1cc2cc(-c3cc(F)c(CN4Cc5ccc6nccn6c5C4=O)c(F)c3)ccc2n1 here?
The EC50 was 10 µM.
